# No end group written: not given here.
# T1: NPSR1-A (Homo sapiens, UniProt Q6W5P4, N107I)
# T1 construct: expressed in transfected cells; host or cells: HEK-293, transient transfection with pCMV-NPSR1-A
# T1 sequence (Q6W5P4 1-371 N107I): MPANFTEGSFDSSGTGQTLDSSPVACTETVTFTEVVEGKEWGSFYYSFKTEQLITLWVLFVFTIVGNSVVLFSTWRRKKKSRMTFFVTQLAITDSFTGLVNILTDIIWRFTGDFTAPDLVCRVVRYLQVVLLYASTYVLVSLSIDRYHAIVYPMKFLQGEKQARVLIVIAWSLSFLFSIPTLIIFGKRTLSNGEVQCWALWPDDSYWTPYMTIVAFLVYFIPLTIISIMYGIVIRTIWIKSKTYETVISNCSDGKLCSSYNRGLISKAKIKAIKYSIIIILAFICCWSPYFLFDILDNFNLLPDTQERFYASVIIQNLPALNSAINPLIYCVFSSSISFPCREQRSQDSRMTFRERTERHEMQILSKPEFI
# T2: NPSR1-B (Homo sapiens, UniProt Q6W5P4, N107I)
# T2 construct: expressed in transfected cells; host or cells: HEK-293, transient transfection with pCMV-NPSR1-B
# T2 sequence (Q6W5P4 1-377 isoform Q6W5P4-4 N107I): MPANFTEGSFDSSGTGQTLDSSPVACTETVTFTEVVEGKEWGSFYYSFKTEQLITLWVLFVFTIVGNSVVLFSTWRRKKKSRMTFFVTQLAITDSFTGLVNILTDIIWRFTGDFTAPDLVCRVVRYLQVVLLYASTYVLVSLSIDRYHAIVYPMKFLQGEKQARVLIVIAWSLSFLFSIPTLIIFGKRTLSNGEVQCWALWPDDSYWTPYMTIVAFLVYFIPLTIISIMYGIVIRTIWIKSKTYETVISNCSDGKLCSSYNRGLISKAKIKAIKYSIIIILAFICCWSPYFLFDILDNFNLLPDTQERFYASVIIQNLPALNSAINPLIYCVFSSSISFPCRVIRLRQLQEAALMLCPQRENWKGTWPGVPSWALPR
# Legend:
# NPSR1-A [1] = molecular target: T1, NPSR1-A; assay: NPS concentration-response, mRNA expression by qRT-PCR, HEK-293 NPSR1-A; type: cell-based; conditions: 0.001-10 μM NPS, 6 h, Hill fit, mean ± SEM
# Description: (§1) Human embryonic kidney cells (HEK-293) were cultured in MEM+GlutaMAX-1 medium (Gibco/Invitrogen) supplemented with 10% fetal calf serum (FCS) (Biosera), 1% sodium pyruvate, 1% non-essential amino acids and 1% penicillin/streptomycin (Gibco/Invitrogen). Human epithelial lung carcinoma cells (A549) were cultured in F-12/D-MEM medium (1:1; Gibco/Invitrogen) supplemented with 10% FCS, L-glutamine and 1% penicillin/streptomycin. Human neuroblastoma cells (SH-SY5Y) were cultured in MEM + GlutaMAX-1 medium supplemented with 10% FCS and 1% penicillin/streptomycin. All cells were kept at 37°C in a humified 5% CO2 incubator. The cells were transiently transfected (Lipofectamin™2000 Reagent, Invitrogen, Carlsbad, USA) with equal amounts of pCMV-NPSR1-A,- NPSR1-B (construction of the expression vectors has been described earlier) or an empty pCMV vector control in a ratio of 1:2 (DNA:Lipofectamin). 24 h post transfection cells were stimulated with NPS ([…]) (Sigma-Genosys LTD, Haverhill, UK or New England Peptide™, Gardner, MA, USA).
# (§2) Total cellular RNA was isolated with the RNAeasy Mini Kit (Qiagen, Hilden, Germany) and reverse transcription was done using the iScript™ cDNA synthesis kit (Bio-Rad Laboratories, Hercules, CA, USA) or SuperScript™ First-Strand Synthesis System (Invitrogen, Carlsbad, USA) according to the manufacturer's protocol. All experiments were performed in biological duplicates or triplicates. qRT-PCR was performed using Fast SYBR® Green technology with hypoxanthine-guanine phosphoribosyl transferase (HPRT) or glyceraldehyde-3-phosphate dehydrogenase (GAPDH) as endogenous controls. Gene-specific primers were designed using Primer3 software (for complete lists of all primer sequences please see Additional file 1, Table S1). The PCR assays were performed in a total volume of 10 μl, containing 2 ul cDNA template, 5 ul Fast SYBR® Green PCR Master Mix (Applied Biosystems, Foster City, CA, USA) and 100 nM of each primer. A 7500 Fast Real-Time PCR system (Applied Biosystems) was used according to manufacturer's instructions. A dissociation stage was added to confirm primer specificity. All assays were carried out in technical duplicates or triplicates. Relative quantification and calculation of the range of confidence was performed with the comparative ΔΔCT method. Results are shown as relative expression compared to NPS stimulated empty vector control cells with error bars illustrating the standard error of the mean (SEM). The levels of total NPSR1 mRNA and isoform specific NPSR1-A and NPSR1-B mRNA were measured with qRT-PCR to control for equal isoform expression levels prior to any experiment on all transiently transfected cells (representative data shown Figure 2b).
# (§3) To refine concentration and time dependency transiently NPSR1-A, -B or empty pCMV vector overexpressing cells were treated either with 0.001, 0.01, 0.1, 1 or 10 μM NPS for 6 h (concentration-response) or with 2 μM NPS for 30 min, 1, 2, 4, 6, 12, 24 or 48 h (time-response). To verify the results in other cell types, A549 and SH-SY5Y transiently overexpressing NPSR1-A, -B or an empty pCMV vector were treated with 2 μM NPS for 6 h. mRNA expression was measured with qRT-PCR. Agonist concentration-effect curve data were fitted to the Hill equation using an iterative, least squares method (GraphPad Prism, San Diego, CA, U.S.A), to provide estimate EC50 (the agonist concentration that induces half-maximum effect) and presented as -log10 (pEC50) which is normally distributed.
# NPSR1-B [2] = molecular target: T2, NPSR1-B; assay: cAMP accumulation (EIA), HEK-293 NPSR1-B; type: cell-based; conditions: 0.001-10 μM NPS, 20 min, 200 μM 3-isobutyl-1-methylxanthine 40 min before, six replicas, mean ± SEM
# Description: (§4) Human embryonic kidney cells (HEK-293) were cultured in MEM+GlutaMAX-1 medium (Gibco/Invitrogen) supplemented with 10% fetal calf serum (FCS) (Biosera), 1% sodium pyruvate, 1% non-essential amino acids and 1% penicillin/streptomycin (Gibco/Invitrogen). Human epithelial lung carcinoma cells (A549) were cultured in F-12/D-MEM medium (1:1; Gibco/Invitrogen) supplemented with 10% FCS, L-glutamine and 1% penicillin/streptomycin. Human neuroblastoma cells (SH-SY5Y) were cultured in MEM + GlutaMAX-1 medium supplemented with 10% FCS and 1% penicillin/streptomycin. All cells were kept at 37°C in a humified 5% CO2 incubator. The cells were transiently transfected (Lipofectamin™2000 Reagent, Invitrogen, Carlsbad, USA) with equal amounts of pCMV-NPSR1-A,- NPSR1-B (construction of the expression vectors has been described earlier) or an empty pCMV vector control in a ratio of 1:2 (DNA:Lipofectamin). […]
# (§5) To assay cAMP accumulation, transiently NPSR1-A or -B overexpressing HEK-293 cells were 24 h after transfection incubated for 40 min with 200 μM 3-isobutyl-1-methylxanthine (Sigma-Aldrich, St. Louis, MO, USA), a nonspecific inhibitor of phosphodiesterases. […] The fluorescence intensity was measured before and after injection of 1 μM NPS using the Fluostar Optima microplate reader (BMG Labtechnologies, Offenburg, Germany).
# NPSR1-A [3] = molecular target: T1, NPSR1-A; assay: cAMP accumulation (EIA), HEK-293 NPSR1-A; type: cell-based; conditions: 0.001-10 μM NPS, 20 min, 200 μM 3-isobutyl-1-methylxanthine 40 min before, six replicas, mean ± SEM
# Description: as §4, §5
# NPSR1-B [4] = molecular target: T2, NPSR1-B; assay: NPS concentration-response, mRNA expression by qRT-PCR, HEK-293 NPSR1-B; type: cell-based; conditions: 0.001-10 μM NPS, 6 h, Hill fit, mean ± SEM
# Description: as §1, §2, §3
# monocytic cell lines = conditions: pro-inflammatory stimuli, ref [10]; cited from earlier work
# Text: The increasing number of positive association studies supports the concept that NPSR1 is mechanistically involved in asthma and allergy, and also in other diseases. It is therefore highly important to understand its functions in more detail. […] Furthermore, we have observed that out ...
# [5] = read-out: pEC50, AREG mRNA (converted)
# [6] = read-out: pEC50, CGA mRNA (converted)
# [7] = read-out: pEC50, NR4A2 mRNA (converted)
# [8] = read-out: pEC50, PCK1 mRNA (converted)
Molecule,EC50 (NPSR1-A [1]; [5]) [nM],EC50 (NPSR1-A [1]; [6]) [nM],"EC50 (NPSR1-A [1]; read-out: pEC50, EGR1 mRNA (converted)) [nM]","EC50 (NPSR1-A [1]; read-out: pEC50, FOS mRNA (converted)) [nM]","EC50 (NPSR1-A [1]; read-out: pEC50, IL8 mRNA (converted)) [nM]",EC50 (NPSR1-A [1]; [7]) [nM],"EC50 (NPSR1-A [1]; read-out: pEC50, NTS mRNA (converted)) [nM]",EC50 (NPSR1-A [1]; [8]) [nM],EC50 (NPSR1-B [2]) [nM],EC50 (NPSR1-A [3]) [nM],EC50 (NPSR1-B [4]; [5]) [nM],"EC50 (NPSR1-B [4]; read-out: pEC50, CCL20 mRNA (converted)) [nM]",EC50 (NPSR1-B [4]; [6]) [nM],EC50 (NPSR1-B [4]; [7]) [nM],EC50 (NPSR1-B [4]; [8]) [nM],"EC50 (NPSR1-B [4]; read-out: pEC50, SERPINB2 mRNA (converted)) [nM]",NPSR1 mRNA levels (monocytic cell lines)
"SFRNGVGTGMKKTSFQRAKS [NPS, neuropeptide S]",234,45.7,72.4,53.7,44.7,7.94,87.1,162,3.89,4.47,170,100,100,83.2,89.1,126,–
TNFα,–,–,–,–,–,–,–,–,–,–,–,–,–,–,–,–,generated elevated NPSR1 mRNA levels
"IFNγ: pro-inflammatory stimulus (protein, UniProt P01579 24-161, looked up) Interferon gamma: QDPYVKEAENLKKYFNAGHSDVADNGTLFLGILKNWKEESDRKIMQSQIVSFYFKLFKNFKDDQSIQKSVETIKEDMNVKFFNSNKKKRDDFEKLTNYSVTDLNVQRKAIHELIQVMAELSPAAKTGKRKRSQMLFRG",–,–,–,–,–,–,–,–,–,–,–,–,–,–,–,–,generated elevated NPSR1 mRNA levels

# — paper PMC3142248, “The asthma candidate gene NPSR1 mediates isoform specific downstream signalling” (BMC Pulmonary Medicine, 2011)
